# Test results taken from article PMC5677563 (Inorganic chemistry, 2017).
# Target: T1, cytochrome c′ (AXCP) (Achromobacter xylosoxidans, UniProt P00138, L16G)
# T1 sequence (P00138 1-127 L16G): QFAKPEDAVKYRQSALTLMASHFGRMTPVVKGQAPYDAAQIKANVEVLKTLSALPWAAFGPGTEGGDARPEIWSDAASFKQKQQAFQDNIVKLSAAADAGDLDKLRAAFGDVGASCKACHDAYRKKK
# Test: UV-vis titration
# Type: binding
compound,measurement,value
O=NO [nitrite],Kd,500 ± 150 µM
